We go through 31 compounds from US9340554B2, “IRAK inhibitors and uses thereof” (Nimbus Iris, Inc., priority 2011, dated 2016).

In this experiment the target is T1, IRAK4 (Homo sapiens, UniProt Q9NWZ3).
T1 construct: purchased CARNA Bioscience 09-145
T1 sequence (Q9NWZ3 1-460): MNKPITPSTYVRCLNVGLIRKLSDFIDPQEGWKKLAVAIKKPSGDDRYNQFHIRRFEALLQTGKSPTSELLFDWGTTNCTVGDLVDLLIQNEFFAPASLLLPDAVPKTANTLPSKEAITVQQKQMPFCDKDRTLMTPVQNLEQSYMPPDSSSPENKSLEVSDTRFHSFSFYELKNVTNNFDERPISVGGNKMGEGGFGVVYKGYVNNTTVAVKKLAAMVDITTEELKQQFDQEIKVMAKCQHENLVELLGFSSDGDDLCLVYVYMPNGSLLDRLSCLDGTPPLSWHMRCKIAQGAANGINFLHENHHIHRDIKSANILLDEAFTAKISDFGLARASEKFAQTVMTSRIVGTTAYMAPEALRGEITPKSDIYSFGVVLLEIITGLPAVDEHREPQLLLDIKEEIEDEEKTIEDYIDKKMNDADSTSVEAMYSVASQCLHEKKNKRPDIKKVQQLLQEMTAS
Description: IRAK-4 activity inhibition assay (Caliper, Peptide 8, 37 μM ATP). In kind it is biochemical. The following applies: 3.5 nM IRAK4, 1.5 μM Peptide 8, 37 μM ATP, 28° C. 40 minutes; read-out: IRAK-4 activity inhibition IC50. As for the experimental part:
A 1× kinase base buffer was prepared from 50 mM HEPES, pH 7.5 and 0.0015% Brij-35. A stop buffer was prepared from 100 mM HEPES, pH 7.5, 0.015% Brij-35, 0.2% Coating Reagent #3, and 50 mM EDTA.
Test compound was diluted to 50× of the final desired highest inhibitor concentration in reaction by 100% DMSO. 100 ul of this compound dilution was transferred to a well in a 96-well plate.
Test compound was serially diluted by transferring 30 μl to 60 μl of 100% DMSO in the next well and so forth for a total of 10 concentrations. 100 μl of 100% DMSO was added to two empty wells for no compound control and no enzyme control in the same 96-well plate.
A new 96-well plate was marked as intermediate plate. 5 μl of compound serial dilution was transferred from source plate to the corresponding wells of the intermediate plate. 45 μl of 1× kinase base buffer (KB buffer) was added to each well of the intermediate plate. The intermediate plate was placed for 10 min on a shaker.
5 μl of each well was transferred from the 96-well intermediate plate to a 384-well plate in duplicates. […] A2 of the 96-well plate is transferred to A3 and A4 of the 384-well plate, and so on.
IRAK4 and DTT in 1× kinase base buffer was added.
Assay plate already contained 5 μl of compound in 10% DMSO. Added 10 μl of 2.5× enzyme solution to each well of the 384-well assay plate, except no enzyme control wells. […] Added 10 μl of 1× kinase base buffer to no enzyme control wells in the assay plate. Incubated at room temperature for 10 min.
Added 10 μl of 2.5× peptide solution to each well of the 384-well assay plate. […] Incubated at 28° C. for 40 minutes. Added 25 μl of stop buffer to stop reaction. Collected data on Caliper.
Copied conversion % data from Caliper program. Converted conversion % values to percent inhibition values. Percent inhibition=(max−conversion %)/(max−min)*100, where “max” means the conversion % of DMSO control and “min” means the conversion % of no enzyme control.
The compound numbers correspond to the compound numbers in Table 1. […] “NA” stands for “not assayed.”

A word on the IC50: it is the point on the concentration scale where inhibition reaches its midpoint.

Consider `CN(C)[C@H]1CC[C@H](N(C)c2ncnc3sc4c(c23)CCC4)CC1` [Compound I-144, (1r,4r)-N1-(6,7-dihydro-5H-cyclopenta[4,5]thieno[2,3-d]pyrimidin-4-yl)-N1,N4,N4-trimethylcyclohexane-1,4-diamine], for which the IC50 is under 5 µM.
The figure for `O=C(O)CN[C@H]1CC[C@H](Oc2ncnc3sc4c(c23)CCC4)CC1` [Compound I-68, 2-((trans-4-((6,7-dihydro-5H-cyclopenta[4,5]thieno[2,3-d]pyrimidin-4-yl)oxy)cyclohexyl)amino)acetic acid] is 5 to 20 µM; for `CC1CCc2sc3ncnc(N[C@H]4CC[C@H](N(C)C)CC4)c3c2C1` (stereo partly drawn) [Compound I-54, trans-N^1,N^1-dimethyl-N^4-(6-methyl-5,6,7,8-tetrahydrobenzo[4,5]thieno[2,3-d]pyrimidin-4-yl)cyclohexane-1,4-diamine] it is under 5 µM; for `O=C(O)[C@@H]1CC[C@H](Nc2ncnc3sc4c(c23)CCC4)C1` [Compound I-6] it is 20 to 50 µM.
On to `CN[C@H]1CC[C@H](N(C)c2ncnc3sc4c(c23)CCC4)CC1` [Compound I-146, (1r,4r)-N1-(6,7-dihydro-5H-cyclopenta[4,5]thieno[2,3-d]pyrimidin-4-yl)-N1,N4-dimethylcyclohexane-1,4-diamine], for which the IC50 is under 5 µM.
The result for `c1nc(NC2CCOCC2)c2c3c(sc2n1)CCC3` [Compound I-8] reads 20 to 50 µM; that for `CN(CCCc1ccccc1)[C@H]1CC[C@H](Oc2ncnc3sc4c(c23)CCC4)CC1` [Compound I-116, N-methyl-N-(3-phenylpropyl)-4-[7-thia-9,11-diazatricyclo[6.4.0.0^[2,6]]dodeca-1(8),2(6),9,11-tetraen-12-yloxy]cyclohexan-1-amine], under 5 µM.
The result for `CN(Cc1ncccc1F)[C@H]1CC[C@H](Nc2ncnc3sc4c(c23)CCC4)CC1` [Compound I-104, 1-N-[(3-fluoropyridin-2-yl)methyl]-1-N-methyl-4-N-[7-thia-9,11-diazatricyclo[6.4.0.0^[2,6]]dodeca-1(12),2(6),8,10-tetraen-12-yl]cyclohexane-1,4-diamine] reads under 5 µM; that for `C[C@@H]1CCc2sc3ncnc(N[C@H]4CC[C@H](N(C)C)CC4)c3c2C1` [Compound I-56, trans-N^1,N^1-dimethyl-N^4-((R)-6-methyl-5,6,7,8-tetrahydrobenzo[4,5]thieno[2,3-d]pyrimidin-4-yl)cyclohexane-1,4-diamine], under 5 µM; that for `C[N+](C)([O-])[C@H]1CC[C@H](Nc2ncnc3sc4c(c23)CCC4)CC1` [Compound I-128, N-[4-(dimethylnitroso)cyclohexyl]-7-thia-9,11-diazatricyclo[6.4.0.0[2,6]]dodeca-1(8),2(6),9,11-tetraen-12-amine], 20 to 50 µM.
`Cc1sc2ncnc(N3CCC(C(=O)Nc4ccc(C#N)c(Cl)c4)CC3)c2c1C` [Compound I-31]: the concentration for half-maximal inhibition (IC50) fell in the range of 5 to 20 µM.
The result for `CN[C@H]1CC[C@@H](Nc2ncnc3sc4c(c23)CCC4)CC1` [Compound I-156, (1s,4s)-1-N-methyl-4-N-[7-thia-9,11-diazatricyclo[6.4.0.0^[2,6]]dodeca-1(12),2(6),8,10-tetraen-12-yl]cyclohexane-1,4-diamine] reads 20 to 50 µM; that for `OC1CCCC(Nc2ncnc3sc4c(c23)CCCC4)C1` (stereo not shown) [Compound I-5, 3-((5,6,7,8-tetrahydrobenzo[4,5]thieno[2,3-d]pyrimidin-4-yl)amino)cyclohexanol], under 5 µM.
As to `O[C@H]1CC[C@H](Nc2ncnc3sc4c(c23)CCCC4)CC1` [Compound I-4, trans-4-((5,6,7,8-tetrahydrobenzo[4,5]thieno[2,3-d]pyrimidin-4-yl)amino)cyclohexanol], the IC50 lay in the range of 5 to 20 µM.
The figure for `CN(CCc1cccc(Cl)c1)[C@H]1CC[C@H](Nc2ncnc3sc4c(c23)CCC4)CC1` [Compound I-107, 1-N-[2-(3-chlorophenyl)ethyl]-1-N-methyl-4-N-[7-thia-9,11-diazatricyclo[6.4.0.0^[2,6]]dodeca-1(8),2(6),9,11-tetraen-12-yl]cyclohexane-1,4-diamine] is under 5 µM; for `CC1CCc2sc3ncnc(N[C@H]4CC[C@H](N)CC4)c3c2C1` (stereo partly drawn) [Compound I-51, trans-N^1-(6-methyl-5,6,7,8-tetrahydrobenzo[4,5]thieno[2,3-d]pyrimidin-4-yl)cyclohexane-1,4-diamine] it is under 5 µM; for `FC(F)(F)CN[C@H]1CC[C@H](Nc2ncnc3sc4c(c23)CCC4)CC1` [Compound I-138, 1-N-[7-thia-9,11-diazatricyclo[6.4.0.0^[2,6]]dodeca-1(8),2(6),9,11-tetraen-12-yl]-4-N-(2,2,2-trifluoroethyl)cyclohexane-1,4-diamine] it is 5 to 20 µM.
The result for `N[C@H]1CC[C@@H](Nc2ncnc3sc4c(c23)CCC4)CC1` [Compound I-154, (1s,4s)-N1-(6,7-dihydro-5H-cyclopenta[4,5]thieno[2,3-d]pyrimidin-4-yl)cyclohexane-1,4-diamine] reads 5 to 20 µM; that for `CN(C(=O)Cc1ccccn1)[C@H]1CC[C@H](Nc2ncnc3sc4c(c23)CCC4)CC1` [Compound I-103, N-methyl-2-(pyridin-2-yl)-N-[4-([7-thia-9,11-diazatricyclo[6.4.0.0^[2,6]]dodeca-1(8),2(6),9,11-tetraen-12-yl]amino)cyclohexyl]acetamide], 20 to 50 µM; that for `c1nc(N[C@H]2CC[C@@H](N3CCC3)CC2)c2c3c(sc2n1)CCC3` [Compound I-159, N-((1s,4s)-4-(azetidin-1-yl)cyclohexyl)-6,7-dihydro-5H-cyclopenta[4,5]thieno[2,3-d]pyrimidin-4-amine], 20 to 50 µM.
The result for `Cc1sc2ncnc(N3CCC(C(N)=O)CC3)c2c1C` [Compound I-18] reads 20 to 50 µM; that for `CN(C)[C@H]1CC[C@H](Nc2ncnc3sc4c(c23)CC(C)(C)CC4)CC1` [Compound I-40, trans-N^1-(6,6-dimethyl-5,6,7,8-tetrahydrobenzo[4,5]thieno[2,3-d]pyrimidin-4-yl)-N^4,N^4-dimethylcyclohexane-1,4-diamine], under 5 µM; that for `CCC1CCc2c(sc3ncnc(N[C@H]4CC[C@H](N)CC4)c23)C1` (stereo partly drawn) [Compound I-39, trans-N^1-(7-ethyl-5,6,7,8-tetrahydrobenzo[4,5]thieno[2,3-d]pyrimidin-4-yl)cyclohexane-1,4-diamine], under 5 µM.
`C[C@@H]1CCc2sc3ncnc(N4CCC(C(N)=O)CC4)c3c2C1` [Compound I-45]: the IC50 was 5 to 20 µM.
As for `CN(C)CCN1CCN(c2ncnc3sc4c(c23)CCC4)CC1` [Compound I-150, 2-(4-(6,7-dihydro-5H-cyclopenta[4,5]thieno[2,3-d]pyrimidin-4-yl)piperazin-1-yl)-N,N-dimethylethanamine], the half-inhibitory concentration (IC50) was in the range of 20 to 50 µM.
As for `OCC(CO)Nc1ncnc2sc3c(c12)CCC3` [Compound I-145], the IC50 was in the range of 20 to 50 µM.
`CN(Cc1cccc(C(N)=O)c1)[C@H]1CC[C@H](Nc2ncnc3sc4c(c23)CCC4)CC1` [Compound I-166, 3-((((1r,4r)-4-((6,7-dihydro-5H-cyclopenta[4,5]thieno[2,3-d]pyrimidin-4-yl)amino)cyclohexyl)(methyl)amino)methyl)benzamide]: the concentration for half-maximal inhibition (IC50) is under 5 µM.
The figure for `c1nc(N[C@H]2CC[C@H](N3CCCC3)CC2)c2c3c(sc2n1)CCC3` [Compound I-142, N-((1r,4r)-4-(pyrrolidin-1-yl)cyclohexyl)-6,7-dihydro-5H-cyclopenta[4,5]thieno[2,3-d]pyrimidin-4-amine] is under 5 µM; for `CN(C1CCOCC1)[C@H]1CC[C@H](Nc2ncnc3sc4c(c23)CCC4)CC1` [Compound I-132, 1-N-methyl-1-N-(oxan-4-yl)-4-N-[7-thia-9,11-diazatricyclo[6.4.0.0[2,6]]dodeca-1(8),2(6),9,11-tetraen-12-yl]cyclohexane-1,4-diamine] it is under 5 µM; for `CCOc1ccccc1N1CCN(c2ncnc3sc4c(c23)CCC4)CC1` [Compound I-30] it is over 50 µM.
On to `NC1CCN(c2ncnc3sc4c(c23)CCC4)CC1` [Compound I-9], for which the IC50 was in the range of 20 to 50 µM.
